Experimental data from US20200345725A1, “Methods and Compositions for Treating Cancer” (Omeros Corporation, priority 2019, published 2020).
Values joined by “and” are separate entries in the source; they are usually repeats but may differ in a detail not shown here. Identical values can stand only once.

Tests used:
Assay type in all cases: cell-based
[1] = molecular target: T1, GPR174 (Homo sapiens, UniProt Q9BXC1); experiment: CRE-Luc reporter Gs signaling assay with GPR174; set-up: host or cells: HEK293 or CHO cell lines (ATCC); conditions: for Gs pathway in the presence of GPR174 (CRE-Luc reporter): increasing concentrations of compound; for EC50: multiple values = separate experiments
Target sequence in this assay (Q9BXC1 whole entry): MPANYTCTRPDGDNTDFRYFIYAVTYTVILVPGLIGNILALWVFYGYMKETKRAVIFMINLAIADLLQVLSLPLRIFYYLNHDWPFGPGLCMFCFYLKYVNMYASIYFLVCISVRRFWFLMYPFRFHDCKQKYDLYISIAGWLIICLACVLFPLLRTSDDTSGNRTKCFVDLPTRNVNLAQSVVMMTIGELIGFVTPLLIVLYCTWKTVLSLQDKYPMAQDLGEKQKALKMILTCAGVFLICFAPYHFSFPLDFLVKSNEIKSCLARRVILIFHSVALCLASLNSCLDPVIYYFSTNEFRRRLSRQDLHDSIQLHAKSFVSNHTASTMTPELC

[2] = molecular target: T2, ADBR2 (Homo sapiens, UniProt P07550); experiment: CRE-Luc reporter assay with control receptor ADBR2
T2 construct: host or cells: HEK293 or CHO cell lines (ATCC)
Protocol: The DNA/lipofectamine 2000 mix (3000 μL) was incubated at room temperature for 30 minutes and then added into a 10 cm culture dish (Corning, NY) containing 70-90% confluent cultured cells, (HEK293 or CHO cell lines (ATCC, VA)), in 15 mL of media. […] The cells were further incubated at 37° C. for various times. The media were removed and the cells lysed.
Compounds were tested in the reporter system with increasing concentrations of GPR174-interacting compounds.
The DNA/lipofectamine 2000 mix (3000 μL) was incubated at room temperature for 30 minutes and then added into a 10 cm culture dish (Corning, NY) containing 70-90% confluent cultured cells, typically HEK293 or CHO cell lines (ATCC, VA), in 15 mL of media. […] Media (26 mL) were added to the detached cells and 120 μL of transfected cells were transferred to each well on a 96-well plate. Increasing concentration of each compound in DMSO (1.2 μl) was added to the cells after plating into the 96-well plate. The cells were further incubated at 37° C. for various times. The media were removed, and the cells lysed.
ADBR2 is a GPCR, like GPR174, that activates the Gs signaling pathway.

[3] = test system: CHRM1; experiment: CRA against CHRM1
Description: (§1) The inventors used a CRA similar to that described in U.S. Pat. No. 7,309,576 and O'Dowd et al., J. Biomol. Screen. 12:175-85, 2007 to identify compounds that are capable of interacting with GPR174 using a library of approximately 370,000 chemical entities. Briefly described, the CRA assay described in U.S. Pat. No. 7,309,576 involves artificially inserting a NLS into the dopamine D1 receptor (DRD1), which allows the receptor to traffic from the cell membrane to the cell interior, and that the binding of antagonists to the receptor retained the receptor at the cell surface, while removal of the ligand allowed the receptor to continue to internalize from the cell surface. Both antagonists and agonists that selectively bound the receptor retained the receptor on the plasma membrane. GPR174 constructs were generated for use in a CRA-based compound screening assay. From this screen, the inventors initially identified compounds of formula I-VI, as described herein and included in Table 1.
The inventors also sought to validate that the compounds identified using the CRA are modulatory compounds. To this end, the above-described CRA was used to screen a library for compounds that interact with three control non-orphan receptors, and the results of this screen were compared to the results of screening the same library for compound that were identified using a Fluorometric Imaging Plate Reader (FLIPR) assay, a conventional technique commonly used to identify compounds interacting with non-orphan GPCRs signaling through Ca^++. Three non-orphan GPCRs—Muscarinic acetylcholine receptor M1 (CHRM1), Adrenergic receptor alpha 1a (ADRA1a), and Neuropeptide S receptor (NPSR)—were screened against a 10,000-compound GPCR-focused library. Thirty interacting compound “hits” were identified using the CRA, and eighty-one hits were identified using the FLIPR for the CHRM1 receptor; 9 CRA hits and 29 FLIPR hits for the NPS receptor were identified; and 110 CRA hits and 110 FLIPR hits for ADRA1a.
In addition, the CRA can also provide the relative potencies of compounds against the target receptor.

[4] = molecular target: T1, GPR174; experiment: Cellular redistribution assay (CRA) for GPR174
Description: One method for identifying compounds capable of modulating a receptor is using a cellular redistribution assay (“CRA”). Exemplary CRA methods are found in U.S. Pat. No. 7,309,576 issued to O'Dowd et al. and in O'Dowd et al., J. Biomol. Screen. 12:175-85,2007. […] Incorporation of the NLS alters the cellular localization of the GPCR, such that the majority of the NLS-modified receptor is present in the cell interior. An NLS-modified GPCR, when interacting with a functionally active compound, is mostly localized on the cell surface. Thus, it becomes possible to identify receptor modulators without knowledge of the endogenous ligand or a surrogate ligand.
The inventors have identified a number of compounds that inhibit GPR174 using a CRA assay similar to that described in U.S. Pat. No. 7,309,576 and in O'Dowd et al., J. Biomol. Screen. 12:175-85, 2007. These compounds are described in detail below.
as §1
Target sequence in this assay (Q9BXC1 1-292 limits assumed): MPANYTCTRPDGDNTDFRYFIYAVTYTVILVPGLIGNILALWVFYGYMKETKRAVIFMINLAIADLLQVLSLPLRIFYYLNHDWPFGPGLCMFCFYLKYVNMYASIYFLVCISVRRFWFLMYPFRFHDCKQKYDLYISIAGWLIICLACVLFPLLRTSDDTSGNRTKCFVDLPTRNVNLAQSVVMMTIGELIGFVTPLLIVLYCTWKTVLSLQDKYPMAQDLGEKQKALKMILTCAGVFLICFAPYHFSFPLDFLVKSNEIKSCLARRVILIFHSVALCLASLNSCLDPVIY

T2 sequence (P07550 whole entry): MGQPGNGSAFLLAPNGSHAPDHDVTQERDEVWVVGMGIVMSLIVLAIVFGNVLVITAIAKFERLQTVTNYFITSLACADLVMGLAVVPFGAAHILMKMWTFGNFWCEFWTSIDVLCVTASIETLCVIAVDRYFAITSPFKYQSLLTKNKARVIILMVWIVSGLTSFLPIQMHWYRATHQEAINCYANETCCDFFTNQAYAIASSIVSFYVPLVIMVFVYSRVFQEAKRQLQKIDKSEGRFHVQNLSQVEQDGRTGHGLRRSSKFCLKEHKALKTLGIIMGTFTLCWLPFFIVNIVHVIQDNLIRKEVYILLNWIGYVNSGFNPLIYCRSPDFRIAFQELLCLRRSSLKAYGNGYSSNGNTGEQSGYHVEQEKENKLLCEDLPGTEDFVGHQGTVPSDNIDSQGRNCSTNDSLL

Row | dose-response curve against GPR174 in the CRA (FIG. 5A) [4] | EC50 ([4]; multiple values = separate experiments) [nM] | Human GPR174 CRE Activity: nature of the compound (IA, antagonist, NM) ([1]; pCRE-Luc reporter) | Structure (SMILES) | Gs pathway in the presence of GPR174 (CRE-Luc reporter) [1] | Fold decrease in Gs signaling activity ([1]; pCRE-Luc reporter) [fold] | EC50 ([1]; pCRE-Luc reporter) | Gs pathway in the presence of ADBR2 (CRE-Luc reporter) [2] | activity against CHRM1 in the CRA (FIG. 5B) [3]
1 | show a dose-response curve | 2100 |  | CCOC(=O)N1CCN(c2cc(N3CCC(C)CC3)c(F)cc2[N+](=O)[O-])CC1 [compound 1] | inhibited | 2.9 | 400 nM and 800 nM | did not inhibit | do not show any activity
2 | show a dose-response curve |  | Antagonist or allostetic modulator | CC(=O)c1ccc(N2CCN(C(=O)c3ccc(F)cc3)CC2)c(F)c1 [compound 3] |  |  |  |  | do not show any activity

Row | Structure (SMILES) | dose-response curve against GPR174 in the CRA (FIG. 5A) [4] | EC50 ([4]; multiple values = separate experiments) [nM] | Human GPR174 CRE Activity: nature of the compound (IA, antagonist, NM) ([1]; pCRE-Luc reporter) | Gs pathway in the presence of GPR174 (CRE-Luc reporter) [1] | Fold decrease in Gs signaling activity ([1]; pCRE-Luc reporter) [fold] | EC50 ([1]; pCRE-Luc reporter) | Gs pathway in the presence of ADBR2 (CRE-Luc reporter) [2] | activity against CHRM1 in the CRA (FIG. 5B) [3]
3 | CC(=O)N1CCN(c2cc(N3CCCCC3)c(F)cc2[N+](=O)[O-])CC1 [compound 2] | show a dose-response curve |  |  | inhibited | 1.7 | 400 nM and 300 nM | did not inhibit | do not show any activity
